Assay results from ChEMBL document CHEMBL5550104, “Discovery of 3-hydroxymethyl-azetidine derivatives as potent polymerase theta inhibitors” (Bioorg Med Chem, 2024).
pIC50: −log10 of the molar value.

What was measured:
[1] = target: T1, DNA polymerase theta (Homo sapiens, UniProt O75417)
[2] = tested on: DLD-1; test: Antiproliferative activity against BRCA2 deficient human DLD-1 cells assessed as inhibition of cell growth incubated for 7 days by Cell-titer glo luminescence assay; assay type: functional, cell-based; settings: DLD-1, 168 h
[3] = target: T1, DNA polymerase theta; test: Inhibition of DNA polymerase theta mediated TMEJ repair activity in human HEK293T cells transfected with TMEJ reporter incubated for 24 hrs by Nano-glo luciferase assay; assay type: cell-based
[4] = target: Cytochrome P450 2D6 (Homo sapiens, UniProt P10635); test: Inhibition of CYP2D6 in human liver microsomes using dextromethorphan as substrate incubated for 10 mins in presence of NADPH by LC-MS/MS analysis; assay type: ADME, Microsome
[5] = target: T2, Cytochrome P450 1A2 (Homo sapiens, UniProt P05177); test: Inhibition of CYP1A2 in human liver microsomes using phenacetin as substrate incubated for 10 mins in presence of NADPH by LC-MS/MS analysis; assay type: ADME, Microsome
T2 sequence (P05177 whole entry): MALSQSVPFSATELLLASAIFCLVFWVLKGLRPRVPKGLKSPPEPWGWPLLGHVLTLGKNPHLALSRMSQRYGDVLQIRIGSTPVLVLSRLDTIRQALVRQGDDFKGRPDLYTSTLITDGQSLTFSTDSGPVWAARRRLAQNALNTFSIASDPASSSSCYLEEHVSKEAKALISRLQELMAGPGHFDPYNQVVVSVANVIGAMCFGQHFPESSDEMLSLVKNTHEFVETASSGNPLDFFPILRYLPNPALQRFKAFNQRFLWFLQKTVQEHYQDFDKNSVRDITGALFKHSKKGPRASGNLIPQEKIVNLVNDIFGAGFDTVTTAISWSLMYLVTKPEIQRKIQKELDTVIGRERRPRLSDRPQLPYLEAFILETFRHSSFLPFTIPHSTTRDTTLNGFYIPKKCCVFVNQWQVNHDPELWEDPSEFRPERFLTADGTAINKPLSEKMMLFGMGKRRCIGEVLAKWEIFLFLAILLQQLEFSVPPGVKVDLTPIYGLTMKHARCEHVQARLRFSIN

[6] = target: Cytochrome P450 2C9 (Homo sapiens, UniProt P11712); test: Inhibition of CYP2C9 in human liver microsomes using diclofenac as substrate incubated for 10 mins in presence of NADPH by LC-MS/MS analysis; assay type: ADME, Microsome
[7] = target: Cytochrome P450 3A4 (Homo sapiens, UniProt P08684); test: Inhibition of CYP3A4 in human liver microsomes using midazolam as substrate incubated for 10 mins in presence of NADPH by LC-MS/MS analysis; assay type: ADME, Microsome
[8] = target: Cytochrome P450 2C19 (Homo sapiens, UniProt P33261); test: Inhibition of CYP2C19 in human liver microsomes using S-mephenytoin as substrate incubated for 10 mins in presence of NADPH by LC-MS/MS analysis; assay type: ADME, Microsome
Cytochrome P450 2C19, sequence (P33261 whole entry): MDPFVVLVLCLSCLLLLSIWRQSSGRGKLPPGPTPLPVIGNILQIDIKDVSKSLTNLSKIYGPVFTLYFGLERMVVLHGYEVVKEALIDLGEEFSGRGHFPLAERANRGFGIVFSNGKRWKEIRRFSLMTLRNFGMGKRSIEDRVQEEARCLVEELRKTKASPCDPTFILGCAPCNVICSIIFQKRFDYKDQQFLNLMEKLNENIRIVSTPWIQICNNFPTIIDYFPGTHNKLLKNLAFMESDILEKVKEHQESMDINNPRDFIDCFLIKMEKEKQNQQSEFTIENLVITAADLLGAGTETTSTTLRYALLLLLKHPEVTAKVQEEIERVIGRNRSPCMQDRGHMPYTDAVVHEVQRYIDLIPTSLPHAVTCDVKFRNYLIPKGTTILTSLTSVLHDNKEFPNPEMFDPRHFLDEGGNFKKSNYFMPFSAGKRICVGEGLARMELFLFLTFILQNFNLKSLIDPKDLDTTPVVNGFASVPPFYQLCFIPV

T1 sequence (O75417 whole entry): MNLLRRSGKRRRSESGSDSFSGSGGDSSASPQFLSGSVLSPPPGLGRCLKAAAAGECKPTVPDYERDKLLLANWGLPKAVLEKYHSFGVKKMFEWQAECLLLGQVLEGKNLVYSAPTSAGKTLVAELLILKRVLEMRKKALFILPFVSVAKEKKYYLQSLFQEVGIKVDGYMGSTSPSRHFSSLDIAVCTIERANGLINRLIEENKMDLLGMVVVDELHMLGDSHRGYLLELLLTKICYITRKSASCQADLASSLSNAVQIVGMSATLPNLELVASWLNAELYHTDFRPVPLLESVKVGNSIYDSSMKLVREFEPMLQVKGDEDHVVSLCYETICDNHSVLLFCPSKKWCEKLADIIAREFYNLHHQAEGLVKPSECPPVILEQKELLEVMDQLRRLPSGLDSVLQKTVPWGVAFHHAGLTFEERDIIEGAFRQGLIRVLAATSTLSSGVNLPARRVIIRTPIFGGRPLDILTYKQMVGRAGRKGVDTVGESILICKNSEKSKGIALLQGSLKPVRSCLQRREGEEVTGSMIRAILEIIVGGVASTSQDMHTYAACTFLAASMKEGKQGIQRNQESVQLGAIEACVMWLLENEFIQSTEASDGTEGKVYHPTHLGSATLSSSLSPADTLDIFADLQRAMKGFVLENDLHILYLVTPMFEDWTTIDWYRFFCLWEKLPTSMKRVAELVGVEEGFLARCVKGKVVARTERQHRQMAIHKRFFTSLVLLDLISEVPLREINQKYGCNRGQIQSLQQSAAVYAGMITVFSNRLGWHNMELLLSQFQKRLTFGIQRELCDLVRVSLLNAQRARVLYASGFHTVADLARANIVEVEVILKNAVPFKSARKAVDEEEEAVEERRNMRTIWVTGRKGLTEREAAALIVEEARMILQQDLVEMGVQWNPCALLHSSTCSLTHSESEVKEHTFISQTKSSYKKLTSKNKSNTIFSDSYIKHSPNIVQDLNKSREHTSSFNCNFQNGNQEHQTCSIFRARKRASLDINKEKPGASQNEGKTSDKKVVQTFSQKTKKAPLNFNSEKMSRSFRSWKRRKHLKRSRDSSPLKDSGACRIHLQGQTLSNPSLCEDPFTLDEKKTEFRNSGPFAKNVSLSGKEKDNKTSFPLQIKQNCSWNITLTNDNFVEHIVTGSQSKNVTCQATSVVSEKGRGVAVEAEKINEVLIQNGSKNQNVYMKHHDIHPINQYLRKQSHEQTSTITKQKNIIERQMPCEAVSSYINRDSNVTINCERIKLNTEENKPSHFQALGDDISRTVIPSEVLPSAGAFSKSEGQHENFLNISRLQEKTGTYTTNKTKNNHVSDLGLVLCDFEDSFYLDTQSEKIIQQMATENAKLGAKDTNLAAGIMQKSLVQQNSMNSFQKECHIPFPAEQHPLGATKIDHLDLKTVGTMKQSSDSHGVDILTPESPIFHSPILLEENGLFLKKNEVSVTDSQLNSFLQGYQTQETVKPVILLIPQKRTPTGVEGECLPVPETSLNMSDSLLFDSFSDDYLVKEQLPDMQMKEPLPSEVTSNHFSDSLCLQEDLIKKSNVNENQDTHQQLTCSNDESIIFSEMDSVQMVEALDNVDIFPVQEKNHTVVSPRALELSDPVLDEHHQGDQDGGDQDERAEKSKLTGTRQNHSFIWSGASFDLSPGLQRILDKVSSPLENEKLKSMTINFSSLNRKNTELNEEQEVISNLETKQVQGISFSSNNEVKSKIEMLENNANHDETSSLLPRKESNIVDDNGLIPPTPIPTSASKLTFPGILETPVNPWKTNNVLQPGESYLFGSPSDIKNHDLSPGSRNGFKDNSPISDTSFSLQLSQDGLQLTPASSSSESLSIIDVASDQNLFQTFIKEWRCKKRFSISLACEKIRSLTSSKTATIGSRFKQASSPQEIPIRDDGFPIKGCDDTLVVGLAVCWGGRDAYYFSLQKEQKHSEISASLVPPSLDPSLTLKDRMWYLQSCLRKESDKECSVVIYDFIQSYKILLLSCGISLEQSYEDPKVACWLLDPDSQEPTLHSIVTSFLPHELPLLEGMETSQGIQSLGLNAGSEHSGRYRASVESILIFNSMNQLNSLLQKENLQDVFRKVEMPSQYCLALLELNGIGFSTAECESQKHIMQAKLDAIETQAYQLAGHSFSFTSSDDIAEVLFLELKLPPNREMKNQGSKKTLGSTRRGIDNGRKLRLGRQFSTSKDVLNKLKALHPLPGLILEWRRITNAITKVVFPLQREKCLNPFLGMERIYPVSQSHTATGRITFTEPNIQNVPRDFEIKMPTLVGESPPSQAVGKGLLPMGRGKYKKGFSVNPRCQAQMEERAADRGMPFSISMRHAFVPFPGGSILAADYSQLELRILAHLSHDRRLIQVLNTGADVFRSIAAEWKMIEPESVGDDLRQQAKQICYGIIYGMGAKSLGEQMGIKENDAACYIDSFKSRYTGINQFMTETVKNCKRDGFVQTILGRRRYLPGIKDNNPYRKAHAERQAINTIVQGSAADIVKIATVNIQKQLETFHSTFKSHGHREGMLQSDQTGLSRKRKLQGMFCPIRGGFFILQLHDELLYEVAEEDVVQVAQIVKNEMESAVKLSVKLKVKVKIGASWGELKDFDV
Cytochrome P450 2C9, sequence (P11712 whole entry): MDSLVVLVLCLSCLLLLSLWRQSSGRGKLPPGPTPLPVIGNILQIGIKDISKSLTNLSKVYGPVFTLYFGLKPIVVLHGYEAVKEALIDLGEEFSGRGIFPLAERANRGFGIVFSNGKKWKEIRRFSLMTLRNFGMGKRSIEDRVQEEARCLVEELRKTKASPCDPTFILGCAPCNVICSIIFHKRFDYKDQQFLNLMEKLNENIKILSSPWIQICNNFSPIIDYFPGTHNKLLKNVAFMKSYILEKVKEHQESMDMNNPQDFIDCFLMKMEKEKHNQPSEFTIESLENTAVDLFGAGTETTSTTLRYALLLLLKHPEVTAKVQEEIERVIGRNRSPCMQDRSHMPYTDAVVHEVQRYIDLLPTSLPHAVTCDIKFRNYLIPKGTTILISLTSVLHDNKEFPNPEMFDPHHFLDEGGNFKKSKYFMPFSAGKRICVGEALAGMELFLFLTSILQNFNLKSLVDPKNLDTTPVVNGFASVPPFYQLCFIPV
Cytochrome P450 2D6, sequence (P10635 whole entry): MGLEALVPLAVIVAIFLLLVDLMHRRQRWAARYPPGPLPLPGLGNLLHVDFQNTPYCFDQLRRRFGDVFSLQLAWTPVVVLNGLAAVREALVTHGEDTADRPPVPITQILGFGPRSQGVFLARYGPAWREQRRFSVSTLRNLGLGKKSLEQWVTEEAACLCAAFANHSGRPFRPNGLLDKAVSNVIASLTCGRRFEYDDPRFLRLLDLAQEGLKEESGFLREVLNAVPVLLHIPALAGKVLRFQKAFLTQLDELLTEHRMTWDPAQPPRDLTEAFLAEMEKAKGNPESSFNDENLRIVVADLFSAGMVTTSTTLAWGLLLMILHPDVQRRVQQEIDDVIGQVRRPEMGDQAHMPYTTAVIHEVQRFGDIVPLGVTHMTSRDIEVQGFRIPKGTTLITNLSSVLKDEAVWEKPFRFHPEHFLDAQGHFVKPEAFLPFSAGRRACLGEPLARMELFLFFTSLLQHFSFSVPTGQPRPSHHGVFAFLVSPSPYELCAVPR
Cytochrome P450 3A4, sequence (P08684 whole entry): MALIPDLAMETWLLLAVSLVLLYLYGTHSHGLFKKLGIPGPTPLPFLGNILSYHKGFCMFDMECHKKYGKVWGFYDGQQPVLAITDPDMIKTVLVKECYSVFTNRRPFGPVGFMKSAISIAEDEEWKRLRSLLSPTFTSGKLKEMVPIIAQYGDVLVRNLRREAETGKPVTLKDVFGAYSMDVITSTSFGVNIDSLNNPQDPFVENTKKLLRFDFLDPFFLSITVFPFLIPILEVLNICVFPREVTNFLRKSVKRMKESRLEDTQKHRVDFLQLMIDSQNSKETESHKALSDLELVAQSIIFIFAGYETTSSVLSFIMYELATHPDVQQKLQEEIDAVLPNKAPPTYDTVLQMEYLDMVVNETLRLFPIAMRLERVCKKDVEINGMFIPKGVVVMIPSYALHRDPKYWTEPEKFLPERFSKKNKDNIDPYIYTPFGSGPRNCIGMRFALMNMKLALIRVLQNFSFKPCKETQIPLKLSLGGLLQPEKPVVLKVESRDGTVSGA

SMILES | pIC50 [1] | further results
Cc1cc(C(F)(F)F)c(C#N)c(N2C[C@@H](CCl)[C@H]2C(=O)N(C)c2ccc(F)c(Cl)c2)n1 | 6.03 | 
Cc1cc(C(F)(F)F)c(C#N)c(N2C(=O)C[C@H]2C(=O)N(C)c2ccc(F)c(Cl)c2)n1 | 6.07 | 
Cc1cc(C(F)(F)F)cc(N2CCOC[C@H]2C(=O)N(C)c2ccc(F)c(Cl)c2)n1 | 5.41 | 
[2H]C([2H])([2H])N(C(=O)[C@@H]1[C@H](CO)CN1c1nc(C)cc(C(F)(F)F)c1C#N)c1ccc(F)c(Cl)c1 |  | pIC50 [4]: 4.76; pIC50 [5]: < 4.30; pIC50 [6]: 5.51; pIC50 [7]: 4.84; pIC50 [8]: 6.11

Continued, in another order:

pIC50 [1] | SMILES | further results
6.66 | Cc1cc(C(F)(F)F)cc(N2CC[C@H]2C(=O)N(C)c2ccc(F)c(Cl)c2)n1 | 
7.38 | Cc1cc(C(F)(F)F)cc(N2C(=O)C[C@H]2C(=O)N(C)c2ccc(F)c(Cl)c2)n1 | 
8.10 | Cc1cc(C(F)(F)F)c(C#N)c(N2CC[C@@H](O)[C@H]2C(=O)N(C)c2ccc(F)c(Cl)c2)n1 | pIC50 [2]: 5.26; pIC50 [3]: 6.80
6.98 | Cc1cc(C(F)(F)F)c(C#N)c(N2CC[C@H]2C(=O)N(C)c2ccc(F)c(Cl)c2)n1 | 
